Laboratory results taken from US10154667B2, “Broadleaf crop control with 6-arylpicoline carboxylic acids, 2-arylpyrimidine carboxylic acids, or salts or esters thereof” (Dow AgroSciences LLC, priority 2013, dated 2018).
Like-named read-outs stand apart in the source and are kept apart here.

Legend:
Format in all cases: in vivo, Glycine max
[1] = system: Maverick GLXMA (conventional soybean); experiment: Greenhouse evaluation of broadleaf volunteer crop control, Maverick soybean; conditions: for pest or weed control at 1.1 g/ha / pest or weed control at 2.2 g/ha / pest or weed control at 4.4 g/ha / pest or weed control at 8.75 g/ha / pest or weed control at 17.5 g/ha: Glycine max, 504 h, read-out: Average Percent Crop Control after Treatment, Maverick GLXMA
Protocol: (§1) Test plants were grown in METRO-MIX® 360 (SunGro Horticulture, Bellevue, Wash.) in 132.7 square centimeters (cm^2) plastic pots for 7-21 days in a greenhouse with an approximate 15 hour (h) photoperiod which was maintained at about 23-29° C. during the day and 22-28° C. during the night. Plants were grown to the 2 to 3 leaf stage prior to applications. Both conventional soybean crops varieties, Maverick and Resnick, and herbicide resistant (HT) varieties AAD12, AAD1, and ROUNDUP® ready soybean crops were treated.
(§2) A weighed amount, determined by the highest rate to be tested, of each test compound was placed in a 25 milliliter (mL) glass vial and was dissolved in 4 mL of a 97:3 v/v (volume/volume) mixture of acetone and dimethyl sulfoxide (DMSO), which will be referred to as General Purpose Solvent (GPS), to obtain concentrated stock solutions. […] The concentrated stock solutions obtained were diluted with 20 mL of an aqueous mixture containing water, GPS, isopropyl alcohol, ATPLUS® 411F crop oil concentrate, and TRITON® X-155 surfactant in a 46:42:12:1.0:0.02 v/v ratio to obtain spray solutions containing the highest application rates. Additional application rates were obtained by serial dilution of 12 mL of the high rate solution into a solution containing 2 mL of 97:3 v/v (volume/volume) mixture of acetone and dimethyl sulfoxide (DMSO) and 10 mL of an aqueous mixture containing water, GPS, isopropyl alcohol, ATPLUS® 411F crop oil concentrate, and TRITON® X-155 surfactant in a 46:42:12:1.0:0.02 v/v ratio to obtain 1/2X, 1/4X, 1/8X and 1/16X rates of the high rate (X). Compound requirements are based upon a 12 mL application volume at a rate of 187 L/ha. Formulated compounds were applied to the plant material with an overhead Mandel track sprayer equipped with 8002E nozzles calibrated to deliver 187 L/ha over an application area of 0.503 square meters (m^2) at a spray height of 18 inches (43 cm) above the average plant canopy height. Control plants were sprayed in the same manner with the solvent blank. The treated plants and control plants were placed in a greenhouse as described above and watered by sub-irrigation to prevent wash-off of the test compounds. After 21 days, the condition of the test plants as compared with that of the control plants was determined visually and scored on a scale of 0 to 100 percent where 0 corresponds to no injury and 100 corresponds to complete kill, and results are listed in Table 1 along with active ingredients and their respective formulations. Each score in Table 1 represents an average obtained from results of three representative experiments.
(§3) Additional formulations with different 6-arylpicolinates were tested in the greenhouse on Maverick and RoundUp-ready soybean crops using the procedure described above. Each score in Table 2 represents an average obtained from results of three representative experiments.

[2] = system: RoundUp Ready GLXMA (HT variety soybean); experiment: Greenhouse evaluation of broadleaf volunteer crop control, RoundUp ready soybean; conditions: for pest or weed control at 1.1 g/ha / pest or weed control at 2.2 g/ha / pest or weed control at 4.4 g/ha / pest or weed control at 8.75 g/ha / pest or weed control at 17.5 g/ha: Glycine max, 504 h, read-out: Average Percent Crop Control after Treatment, RoundUp Ready GLXMA
Protocol: as §1, §2, §3

[3] = system: ROUNDUP READY soybeans (GLXMA); experiment: Field evaluation with various herbicides, 46 days after treatment; conditions: for % Crop Control: 46 Days After Treatment
Source text: (§4) The average percent visual control of ROUNDUP READY® soybeans (GLXMA) 46 days after treatment with various herbicides with standard formulation in comparison with compound of Formula (IV) at specified rates are provided in Table 6 below. The data was the result of conducting factorial replicated field trials (4 trials) by applying the compositions at a spray pressure of 300 kPa and a spray volume of 200 L/ha. The treated plots and control plots were visually rated blind at the specified dates after application. Ratings were based on a scale of 0-100%, as discussed above, wherein 0% indicates complete growth of the undesired vegetation and 100% indicates complete prevention/eradication of the undesired vegetation.

[4] = system: ROUNDUP READY soybeans (GLXMA); experiment: Field evaluation with various herbicides, 30 days after treatment; conditions: for % Crop Control: 30 Days After Treatment
Source text: as §4, with “The” for “The average percent visual control of ROUNDUP READY® soybeans (GLXMA) 46 days after treatment with various herbicides with standard formulation in comparison with compound of Formula (IV) at specified rates are provided in Table 6 below. The”, “(3” for “(4”

[5] = 1.1 g ae/ha, greenhouse, 2 to 3 leaf stage, after 21 days, 0 no injury, 100 complete kill
[6] = 2.2 g ae/ha, greenhouse, 2 to 3 leaf stage, after 21 days, 0 no injury, 100 complete kill
[7] = 4.4 g ae/ha, greenhouse, 2 to 3 leaf stage, after 21 days, 0 no injury, 100 complete kill
[8] = 8.75 g ae/ha, greenhouse, 2 to 3 leaf stage, after 21 days, 0 no injury, 100 complete kill
[9] = 17.5 g ae/ha, greenhouse, 2 to 3 leaf stage, after 21 days, 0 no injury, 100 complete kill

Compound | pest or weed control at 1.1 g/ha [1, 5] | pest or weed control at 2.2 g/ha [1, 6] | pest or weed control at 4.4 g/ha [1, 7] | pest or weed control at 8.75 g/ha [1, 8] | pest or weed control at 17.5 g/ha [1, 9] | pest or weed control at 1.1 g/ha [2, 5] | pest or weed control at 2.2 g/ha [2, 6] | pest or weed control at 4.4 g/ha [2, 7] | pest or weed control at 8.75 g/ha [2, 8] | pest or weed control at 17.5 g/ha [2, 9] | further results
COc1c(Cl)ccc(-c2nc(C(=O)OCc3ccccc3)c(Cl)c(N)c2F)c1F |  |  |  |  |  |  |  |  |  |  | pest or weed control at 1.1 g/ha [1]: 100%; pest or weed control at 2.2 g/ha [1]: 100%; pest or weed control at 4.4 g/ha [1]: 100%; pest or weed control at 8.75 g/ha [1]: 100%; pest or weed control at 17.5 g/ha [1]: 100%; pest or weed control at 1.1 g/ha [2]: 100%; pest or weed control at 2.2 g/ha [2]: 100%; pest or weed control at 4.4 g/ha [2]: 100%; pest or weed control at 8.75 g/ha [2]: 100%; pest or weed control at 17.5 g/ha [2]: 100%
Nc1cc(-c2ccc(Cl)cc2F)nc(C(=O)O)c1Cl | 100% | 100% | 100% | 100% | 100% | 100% | 100% | 100% | 100% | 100% | 
Cc1c(Cl)ccc(-c2cc(N)c(Cl)c(C(=O)O)n2)c1F | 53% | 82% | 99% | 100% | 100% | 57% | 80% | 98% | 100% | 100% | 
Cc1ccc(-c2cc(N)c(Cl)c(C(=O)O)n2)cc1 | 100% | 100% | 100% | 100% | 100% | 90% | 100% | 100% | 100% | 100% | 
Nc1c(F)c(-c2ccc3c(c2)OCO3)nc(C(=O)O)c1Cl | 27% | 42% | 58% | 95% | 100% | 32% | 45% | 73% | 92% | 98% | 
COC(=O)c1nc(-c2ccc(Cl)cc2OC)cc(N)c1Cl | 98% | 100% | 100% | 100% | 100% | 95% | 99% | 100% | 100% | 100% | 
CNC.O=C(O)COc1ccc(Cl)cc1Cl [2,4-D-dma] |  |  |  |  |  |  |  |  |  |  | % Crop Control ([3]; 1300 g ai/Ha): 97.3%
CC(O)CN(CC(C)O)CC(C)O.Nc1cc(Cl)nc(C(=O)O)c1Cl (stereo not shown) [Aminopyralid TIPA] |  |  |  |  |  |  |  |  |  |  | % Crop Control ([4]; 1.25 g ai/Ha): 60%
CCNc1nc(Cl)nc(NC(C)C)n1 [Atrazine] |  |  |  |  |  |  |  |  |  |  | % Crop Control ([4]; 1500 g ai/Ha + 1% J'Oil): 86.7%; % Crop Control ([4]; 1500 g ai/Ha): 75%
O=C(O)c1nc(Cl)ccc1Cl [Clopyralid] |  |  |  |  |  |  |  |  |  |  | % Crop Control ([3]; 54 g ai/Ha): 93.8%
C#CCN1C(=O)COc2cc(F)c(N3C(=O)C4=C(CCCC4)C3=O)cc21 [Flumioxazin] |  |  |  |  |  |  |  |  |  |  | % Crop Control ([3]; 25 g ai/Ha): 0%
Nc1c(Cl)c(F)nc(OCC(=O)O)c1Cl [Fluroxypyr] |  |  |  |  |  |  |  |  |  |  | % Crop Control ([3]; 200 g ai/Ha): 100%
COc1c(Cl)ccc(-c2nc(C(=O)O)c(Cl)c(N)c2F)c1F [Formula (III)] |  |  |  |  |  |  |  |  |  |  | % Crop Control ([4]; 18 g ai/Ha): 100%; herbicidal activity in genetically engineered crops as compared to other commercially known herbicides ([4]; RoundUp Ready soybeans): comparable or superior
COc1c(Cl)ccc(-c2cc(N)c(Cl)c(C(=O)O)n2)c1F [Formula (IV)] |  |  |  |  |  |  |  |  |  |  | % Crop Control ([3]; 17 g ai/Ha): 93%; herbicidal activity in genetically engineered crops as compared to other commercially known herbicides ([3]; RoundUp Ready soybeans): comparable or superior
CCOc1cc(Oc2ccc(C(F)(F)F)cc2Cl)ccc1[N+](=O)[O-] [Oxyfluorfen] |  |  |  |  |  |  |  |  |  |  | % Crop Control ([4]; 72 g ai/Ha): 16.7%
COc1cnc(OC)n2nc(NS(=O)(=O)c3c(OCC(F)F)cccc3C(F)(F)F)nc12 [Penoxsulam] |  |  |  |  |  |  |  |  |  |  | % Crop Control ([4]; 18 g ai/Ha): 87.3%
COc1c(Cl)ccc(-c2nc(C(=O)O)c(Cl)c(N)c2F)c1F [drawing 13] |  |  |  |  |  | 100% |  |  |  |  | Average Percent Crop Control after Treatment, Maverick GLXMA [1, 5]: 100%; Average Percent Crop Control after Treatment, Maverick GLXMA [1, 6]: 100%; Average Percent Crop Control after Treatment, Maverick GLXMA [1, 7]: 100%; Average Percent Crop Control after Treatment, Maverick GLXMA [1, 8]: 100%; Average Percent Crop Control after Treatment, Maverick GLXMA [1, 9]: 100%; Average Percent Crop Control after Treatment, RoundUp Ready GLXMA [2, 6]: 100%; Average Percent Crop Control after Treatment, RoundUp Ready GLXMA [2, 7]: 100%; Average Percent Crop Control after Treatment, RoundUp Ready GLXMA [2, 8]: 100%; Average Percent Crop Control after Treatment, RoundUp Ready GLXMA [2, 9]: 100%
COc1c(Cl)ccc(-c2cc(N)c(Cl)c(C(=O)O)n2)c1F [drawing 15] | 100% | 100% | 100% | 100% | 100% | 100% | 100% | 100% | 100% | 100% | 
COc1ncc(F)c2nc(S(=O)(=O)Nc3c(F)cccc3F)nn12 [florasulam] |  |  |  |  |  |  |  |  |  |  | % Crop Control ([4]; 5 g ai/Ha + 1% J'Oil): 63.3%
